Experimental data reported in patent publication US20210378193A1, “HAPLOID EMBRYOGENESIS” (STICHTING WAGENINGEN RESEARCH, priority 2013, published 2021).

Tested on: B. napus DH 12075 microspore-derived embryos
Test: conversion of microspore-derived embryos to seedlings (roots, shoots)
Format: cell-based, Brassica napus
Details: embryos transferred to regeneration medium
Excerpt: All of the embryos that produced roots, except for the short embryo type, initiated root development from the root meristem, as evidenced by the development of roots within a few days of growth on germination medium.
In FIG. 12B, different types of embryos derived from different populations of microspores/pollen treated with DMSO (control) or different concentrations of HDACi were transferred to a regeneration medium and evaluated for their ability to produce shoots (a measure of conversion).

SMILES: O=C(CCCCCCC(=O)Nc1ccccc1)NO [SAHA, suberoylanilide hydroxamic acid]
- germination (ability to produce shoots, a measure of conversion) compared to the control: improved
